Assay results from paper PMC10626578, “Designed switch from covalent to non-covalent inhibitors of carboxylesterase Notum activity” (European Journal of Medicinal Chemistry, 2023).
In brackets after ≈: the same amount, converted by molar mass. Several values for one entry are separate records, joined by “and”; a condition that tells them apart may be missing. Identical values can stand only once. Like-named read-outs stand apart in the source and are kept apart here.

Tests used:
[1] = Stability in human liver microsomes; format: in vitro ADME
Method: (§1) Selected compounds were routinely screened for aqueous solubility in PBS (pH 7.4), transit performance in MDCK-MDR1 cell lines for permeability, and metabolic stability in MLM and HLM as a measure of clearance. The main metabolites and routes of metabolism of 4y were determined in MLM. Assay protocols and additional data are presented in the Supplementary Material (Tables S1–S7). ADME studies reported in this work were performed by WuXi AppTec (Shanghai, China).
(§2) Representative assay protocols have been described in detail. ^1,2

Notum = biological target: T1, Notum (Homo sapiens, UniProt Q6P988); assay: TCF/LEF Reporter (Luciferase) cell line with exogenous WNT3a and Notum; format: cell-based; conditions: for restoration of Wnt signalling in the presence of Notum: concentration-response curves up to 10 μM
T1 construct: host or cells: TCF/LEF Reporter (Luciferase) cell line; Notum added exogenously
T1 sequence (Q6P988 20-496): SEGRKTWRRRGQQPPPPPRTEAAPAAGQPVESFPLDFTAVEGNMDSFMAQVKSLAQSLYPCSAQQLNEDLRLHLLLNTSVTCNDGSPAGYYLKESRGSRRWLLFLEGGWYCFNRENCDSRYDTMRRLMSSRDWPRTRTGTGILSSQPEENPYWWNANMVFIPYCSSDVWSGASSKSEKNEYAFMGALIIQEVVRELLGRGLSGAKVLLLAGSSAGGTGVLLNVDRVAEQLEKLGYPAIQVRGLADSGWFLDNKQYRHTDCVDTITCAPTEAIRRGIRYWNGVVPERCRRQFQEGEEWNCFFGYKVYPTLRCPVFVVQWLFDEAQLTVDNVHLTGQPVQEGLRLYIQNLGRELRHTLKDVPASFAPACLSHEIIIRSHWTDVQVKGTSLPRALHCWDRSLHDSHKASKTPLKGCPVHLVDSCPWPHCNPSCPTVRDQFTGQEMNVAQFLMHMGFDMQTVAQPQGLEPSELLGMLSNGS
Method: Notum inhibitors 3–5 (Table 1, Table 2, Table 3, Table 4) were either purchased or prepared using established synthetic methods from readily available starting materials (Scheme 1). Where necessary, the synthesis of many of these amines (e.g. 6) have been reported previously and full details of their preparation have been included in the Experimental Section. Notum inhibition activity was determined using the standard Notum-OPTS biochemical assay using IC50 values. These values were used to compare relative activities with covalent inhibitors under carefully regulated assay conditions. Confirmed inhibitors were routinely screened in in vitro ADME assays. Selected inhibitors were screened for inhibition of Notum activity in a TCF/LEF Reporter (Luciferase) cell line with exogenous WNT3a and Notum, and soaked into Notum crystals to determine their binding modes and evidence of MoA. […]
(§3) Methods have been described in detail.

[2] = Stability in mouse plasma; format: in vitro ADME
Description: as §2

[3] = test system: MDR1-MDCKII cell monolayer; assay: Permeability using MDR1-MDCKII cell monolayer; format: in vitro ADME; conditions: Table 3; efflux ratio
Method: as §1, §2

[4] = Permeability using MDR1-MDCKII cell monolayer; format: in vitro ADME; conditions: dog, MDCK-MDR1, Table S3, mean n=2
Method: as §1, §2

MDR1 = assay: Permeability using MDR1-MDCKII cell monolayer; format: in vitro ADME; conditions: dog
Method: as §1, §2

[5] = Aqueous solubility in PBS (pH 7.4); format: physicochemical; conditions: for solubility thermodynamic: PBS, Table S2, pH 7.4, n = 2, * below lower limit of quantification, read-out: Thermodynamic Solubility @ RT; for solubility: Table 3, PBS pH 7.4
Method: as §1, §2

[6] = biological target: T2, Notum (core, 81–451C330S) (Homo sapiens, UniProt Q6P988, C330S); assay: Notum-OPTS biochemical assay, Notum (81–451C330S)
T2 construct: high-throughput biochemical assay with Notum (81–451C330S) and OPTS as a synthetic fluorescent substrate; made in house
T2 sequence (Q6P988 81-451 C330S): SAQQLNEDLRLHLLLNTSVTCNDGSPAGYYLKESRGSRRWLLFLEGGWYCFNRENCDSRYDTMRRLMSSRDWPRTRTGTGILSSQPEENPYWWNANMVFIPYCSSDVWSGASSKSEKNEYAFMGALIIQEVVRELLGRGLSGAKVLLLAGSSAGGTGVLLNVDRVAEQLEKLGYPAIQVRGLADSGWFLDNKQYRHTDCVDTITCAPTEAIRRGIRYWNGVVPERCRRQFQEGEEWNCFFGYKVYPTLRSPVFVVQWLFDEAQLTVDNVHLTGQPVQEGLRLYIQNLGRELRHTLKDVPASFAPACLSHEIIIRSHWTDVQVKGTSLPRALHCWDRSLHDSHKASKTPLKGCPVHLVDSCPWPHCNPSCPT
Method: Notum inhibitors 3–5 (Table 1, Table 2, Table 3, Table 4) were either purchased or prepared using established synthetic methods from readily available starting materials (Scheme 1). Where necessary, the synthesis of many of these amines (e.g. 6) have been reported previously and full details of their preparation have been included in the Experimental Section. Notum inhibition activity was determined using the standard Notum-OPTS biochemical assay using IC50 values. These values were used to compare relative activities with covalent inhibitors under carefully regulated assay conditions. […] Selected inhibitors were screened for inhibition of Notum activity in a TCF/LEF Reporter (Luciferase) cell line with exogenous WNT3a and Notum, and soaked into Notum crystals to determine their binding modes and evidence of MoA.
as §3

[7] = Distribution coefficient LogD7.4, shake flask method; format: physicochemical; conditions: pH 7.4; Table 3
Method: Molecular properties (MW, clogP) were calculated with ChemDraw Professional v16.0.1.4(77). Distribution coefficients (LogD7.4) were measured using the shake flask method.
Representative assay protocols have been described in detail.^1,^2

[8] = test system: TCF/LEF Reporter (Luciferase) cell line; assay: TCF/LEF reporter (Luciferase) assay with WNT3A in the absence of Notum; format: cell-based; conditions: up to 10 μM
Method: (§4) Early leads 4v, 4w and 4y were then evaluated in additional pharmacology and ADME screens (Table 3). […] Screening 4w and 4y in the biochemical assay using full length Notum and OPTS confirmed potent inhibition of Notum activity.
Figure S4D. Notum TCF/LEF reporter (Luciferase) data with WNT3A (200 ng/mL) in the absence of Notum. Representative response-concentration curves are for 4w (2 of 6 shown) from a larger data set for compounds 3-5. Examples are from different screening runs.

Notum (full length) = biological target: T3, Notum (full length) (Homo sapiens, UniProt Q6P988); assay: Notum-OPTS biochemical assay, full length Notum
T3 construct: Screening 4w and 4y in the biochemical assay using full length Notum and OPTS
T3 sequence (Q6P988 20-496): T1 sequence (Q6P988 20-496)
Method: as §4, §3

[9] = Stability in mouse liver microsomes; format: in vitro ADME; conditions: for microsomal CLint at 1 h: Table 3, read-out: MLM Clint; for half-life: mouse, read-out: MLM Stability t1/2
Method: as §1, §2

[10] = Metabolite identification of 4y in mouse liver microsomes (LC-UV-MS); format: in vitro ADME; conditions: 4y at 10 µM incubated with MLM at 37 °C for 60 min; share of total drug-related components
Method: The test compound 4y at 10 µM was incubated with mouse liver microsomes (MLM) at 37 °C for 60 min. The positive control, 7-ethoxycoumarin (7-EC) at 10 µM, was run concurrently to assess Phase I metabolic activities in liver microsomes. […] After incubation, the samples were analysed by LC-UV-MS. The structures of the metabolites were proposed based on the interpretation of their MS and MS^2 data.
The relative abundance of 4y and each of the putative metabolites were calculated using peak area (peak area under the UV spectrum at 250-280 nm) of individual metabolite relative to the total area of all detected drug-related components (Table S6).

[11] = Notum (core, 81–451C330S), restoration of Wnt signalling, read-out: TCF-LEF, EC50
[12] = Notum (core, 81–451C330S), read-out: OPTS, IC50
[13] = Table 2, mean ± s.d. of n = 4–12, >10 = 20–50% inhibition @ 10 μM, read-out: Notum IC50
[14] = Notum (full length), read-out: OPTS, IC50

Row | SMILES | EC50 (Notum; [11]) | restoration of Wnt signalling in the presence of Notum (Notum) | solubility thermodynamic [5] | solubility [5] | IC50 [6, 12] | IC50 [6, 13] | assay interference or cell toxicity in the absence of Notum [8] | IC50 (Notum (full length); [14]) | MLM Stability Cli [9] | microsomal CLint at 1 h [9] | half-life [9] | other results
1 | CC(=O)N1CCc2c1ccc(Cl)c2Cl [Compound 4w, 1-(4,5-Dichloroindolin-1-yl)ethan-1-one] | 22 ± 14 nM | restored Wnt signalling | < 0.36 µg/mL | 0.4 µg/mL (≈ 1.74 µM) | 2.5 ± 0.6 nM | 2.5 ± 0.6 nM | not by assay interference or cell toxicity | 4.9 ± 0.6 nM | 1150 µL/min/mg protein | 1200 µL/min/mg | 1.2 min | HLM Stability Cli [1]: 138 µL/min/mg protein; microsomal CLint at 1 h ([1]; Table 3, read-out: HLM Clint): 140 µL/min/mg; half-life ([1]; human, read-out: HLM Stability t1/2): 10 min; EC50 (Notum; Figure S4C, WNT3A (200 ng/mL), 6 of 6 curves shown, read-out: EC50, single concentration-response curve): 5.5 nM and 4.3 nM and 15.2 nM and 39 nM and 29.1 nM and 36.8 nM; half-life ([2]; Table S5, read-out: Mouse plasma Stability t1/2): > 280 min; half-life ([2]; read-out: mouse plasma stability t½): > 240 min; MDCK-MDR1 ER [3]: 0.60; recovery ([4]; read-out: A to B % Recovery): 75%; recovery ([4]; read-out: B to A % Recovery): 81%; Papp (MDR1; MDCK-MDR1, Table 3, apical to basal, read-out: MDCK-MDR1 AB Papp): 35 ×10⁻⁶ cm/s; Papp (MDR1; MDCK-MDR1, Table 3, basal to apical, read-out: MDCK-MDR1 BA Papp): 21 ×10⁻⁶ cm/s; efflux ratio (MDR1; MDCK-MDR1, Table S3, mean n=2): 0.59; Papp (MDR1; MDCK-MDR1, Table S3, mean n=2, read-out: Apical to Basal Papp): 35.5 ×10⁻⁶ cm/s; Papp (MDR1; MDCK-MDR1, Table S3, mean n=2, read-out: Basal to Apical Papp): 21.1 ×10⁻⁶ cm/s; IC50 ([6]; Figure S4A, Notum (81-451 C330S) OPTS, 4 of 11 curves shown, read-out: IC50, single concentration-response curve): 2.8 nM and 3.7 nM and 2.3 nM and 3.1 nM; LE ([6]; ligand efficiency from Notum OPTS IC50): 0.85; LLE ([6]; lipophilic ligand efficiency from Notum OPTS IC50 and clogP): 5.9; logD [7]: 3.1; IC50 (Notum (full length); Figure S4B, Notum (full length) OPTS, 3 of 3 curves shown, read-out: IC50, single concentration-response curve): 5.3 nM and 4.1 nM and 5.4 nM
2 | CC(=O)N1CC2(CC2)c2c(Cl)cccc21 [Compound 4y, 1-(4′-Chlorospiro[cyclopropane-1,3′-indolin]-1′-yl)ethan-1-one] | 35 ± 13 nM | restored Wnt signalling | 0.186 µg/mL (≈ 0.839 µM) | 0.2 µg/mL (≈ 0.902 µM) | 3.5 ± 0.6 nM | 3.5 ± 0.6 nM | not by assay interference or cell toxicity | 11 ± 1.4 nM | 895 µL/min/mg protein | 900 µL/min/mg | 1.5 min | Relative Abundance (UV peak area %Total) [10]: 30% and 30.48%
